The text below walks through data of patent US4547357A, “N-Hydroxyethylated 2,4,6-triiodoaminoisophthalic acid bistrihydroxybutylamides, their preparation and x-ray contrast media containing them” (priority 1981, dated 1985).

Data set [1] has as its system Rat. Briefly: Neural compatibility, rat, pericerebral ED50. It counts as in vivo. The source says: (§1) In Table I, the following compounds are compared with respect to neural and general compatibility: […]
In data set [2] the test system is Rat. As to the kind of experiment: Neural compatibility, rat, intracisternal ED50. It counts as in vivo.
Excerpt: as §1

Another data set relates to Mouse. Briefly: General compatibility, mouse LD50. It counts as in vivo. As to conditions: for Mouse LD50: General compatibility.
Excerpt: as §1

Another data set is described as follows: Iodine content. It counts as physicochemical.
Data set [3] in a line: Number of hydroxy groups per molecule. It counts as physicochemical.
Data set [4] in a line: Viscosity at 37° C., 300 mg I/ml. It counts as physicochemical.
The conditions of data set [5]: clinical experience; cited from earlier work.
The test system of data set [6] is Rat. As to the kind of experiment: Neural compatibility, comparison in words. It counts as in vivo. The following applies: data of Table I.
Excerpt: as §1

A short description of the next data set: Solubility in water. It counts as physicochemical. The following applies: in 100 ml of water; read-out: Solubility (100 ml of water dissolves).

Where two headings read alike, the source gives them in different places.

In the case of `CC(=O)Nc1c(I)c(C(=O)N[C@H]2C(O)O[C@H](CO)[C@@H](O)[C@@H]2O)c(I)c(N(C)C(C)=O)c1I` (some centres unmarked) [B, Metrizamide], the “Rat, pericerebral ED50” value in the data set on Rat [1] is recorded as 62 mg I/kg. Moreover, the “Rat, intracisternal ED50” value with Rat [2] worked out at 48 mg I/kg. In addition, the “Mouse LD50” value in the data set on Mouse came to 14 g I/kg. Further, the Iodine content in the data set “Iodine content” worked out at 48%. The “Number of hydroxy groups/molecule” value in [3] is on record as 4. For the same compound, the Viscosity in data set [4] stood at 6.2 mPa · s. For the same compound, the “side effects (in words)” value in data set [5] is recorded as “still are not devoid of side effects”.
Take `C[C@H](O)C(=O)Nc1c(I)c(C(=O)NC(CO)CO)c(I)c(C(=O)NC(CO)CO)c1I` [C, Iopamidol]: the “Rat, pericerebral ED50” value in the data set on Rat [1] is reported as 154 mg I/kg. The “Rat, intracisternal ED50” value in the data set on Rat [2] turned out to be 116 mg I/kg. Besides, in the data set with Mouse, the “Mouse LD50” value was determined as 15 g I/kg. Besides, the Iodine content in “Iodine content” stood at 49%. For the same compound, the “Number of hydroxy groups/molecule” value in [3] is reported as 5. In data set [4], this compound displayed a Viscosity of 4.5 mPa · s. Further, the “side effects (in words)” value in data set [5] is given as “still are not devoid of side effects”.
On to `CC(=O)N(CC(O)CO)c1c(I)c(C(=O)NCC(O)CO)c(I)c(C(=O)NCC(O)CO)c1I` (centres unmarked) [D, Iohexol], for which the “Rat, pericerebral ED50” value with Rat [1] is given as 83 mg I/kg. In the data set with Rat [2], the “Rat, intracisternal ED50” value stood at 67 mg I/kg. Moreover, the “Mouse LD50” value in the data set on Mouse was found to be 15 g I/kg. The Iodine content in the data set “Iodine content” is on record as 46%. Also, the “Number of hydroxy groups/molecule” value in data set [3] worked out at 6. The compound also displayed a Viscosity in data set [4] of 5.5 mPa · s. The “side effects (in words)” value in [5] is on record as “still are not devoid of side effects”.
Take `CC(=O)N(CCO)c1c(I)c(C(=O)NC(CO)C(O)CO)c(I)c(C(=O)NC(CO)C(O)CO)c1I` (stereo not drawn) [Example 1, 5-[N-(2-Hydroxyethyl)acetylamino]-2,4,6-triiodoisophthalic acid bis(threo-1,3,4-trihydroxybut-2-yl)diamide]: the “Rat, pericerebral ED50” value with Rat [1] (listed as A1) is 171 mg I/kg. Also, in the data set with Rat [2], the “Rat, intracisternal ED50” value stood at 130 mg I/kg. Further, the “Mouse LD50” value in the data set with Mouse (listed as A1) came out at 17 g I/kg. The “general compatibility (in words)” value in the data set on Mouse (data of Table I) is “superior to the comparison compounds”. The compound further displayed an Iodine content in “Iodine content” of 45%. Also, in [3], the “Number of hydroxy groups/molecule” value is 7. The compound also came in with a Viscosity in [4] (listed as A1) of 5.8 mPa · s. The “neural compatibility (in words)” value in the data set on Rat [6] is “superior to the comparison compounds”.
`CC(=O)N(CCO)c1c(I)c(C(=O)NC(CO)C(O)CO)c(I)c(C(=O)NC(CO)C(O)CO)c1I` (stereo not drawn) [Example 2, 5-[N-(2-Hydroxyethyl)acetylamino]-2,4,6-triiodoisophthalic acid bis(erythro-1,3,4-trihydroxybut-2-yl)diamide]: the “Rat, pericerebral ED50” value in the data set on Rat [1] (listed as A2) was found to be 188 mg I/kg. In addition, in the data set with Mouse (listed as A2), the “Mouse LD50” value came to 22 g I/kg. Also, in data set [4] (listed as A2), the Viscosity was 6.2 mPa · s. Further, in the data set “Solubility in water”, the solubility (usually the concentration that dissolves in the medium under given conditions) was above 700 mg/mL.
Take `CC(=O)N(CCO)c1c(I)c(C(=O)NC(CO)(CO)CO)c(I)c(C(=O)NC(CO)(CO)CO)c1I` [Example 3, 5-[N-(2-Hydroxyethyl)acetylamino]-2,4,6-triiodo-isophthalic Acid Bis(1,1,1-trishydroxymethylmethyl)diamide]: the solubility in the data set “Solubility in water” is above 700 mg/mL.
The same measure, in the same setting: the figure for `CC(=O)N(CCO)c1c(I)c(C(=O)NCC(O)C(O)CO)c(I)c(C(=O)NCC(O)C(O)CO)c1I` (centres unmarked) [Example 4, 5-[N-(2-Hydroxyethyl)acetylamino]-2,4,6-triiodo-isophthalic Acid Bis(2,3,4-trihydroxybut-1-yl)-diamide] is above 700 mg/mL.
